Reference: PMC7504360 (International Journal of Molecular Sciences, 2020)
Like-named read-outs stand apart in the source and are kept apart here. Square brackets hold non-standard residues; d marks the D form. Peptide text beside a SMILES is read from it.

Key:
all bacterial strains = test: Mean MIC over all bacterial strains (GM); type: cell-based; details: mean MIC of all bacterial strains of Table 2
Protocol: (§1) Briefly, the microplates were inoculated with two-fold serial dilutions of each peptides in Mueller–Hinton (MH) media and then seeded with log-phase culture of aforementioned bacterial suspensions (2 × 10^5 CFU/mL). The microplates were incubated for 16 h at 37 °C, and absorbance was read at 600 nm using microplate reader SpectraMAX (Molecular Devices, San Jose, CA, USA).

[1] = test system: A. baumannii (KCCM 40203)
Excerpt: (§2) Two strains of gram-negative bacteria, namely E. coli (KCTC 1682) and A. baumannii (KCCM 40203) from the Korean Collection for Type Cultures (KCTC) (Taejon, Korea) and Korean Culture Center of Microorganisms (KCCM) (Seoul, South Korea). Escherichia coli K1 strain RS218 (O18:K1:H7) was a gift from Prof. Jang-Won Yoon in Kangwon National University (Chuncheon, South Korea). Multidrug-resistant gram-negative bacteria (E. coli CCARM 1229, E. coli CCARM 1238, A. baumannii CCARM 12010, and A. baumannii CCARM 12220) were obtained from the Culture Collection of Antibiotic-Resistant Microbes (CCARM) at Seoul Women’s University (Seoul, South Korea).
as §1

E. Coli = test system: E. Coli
Excerpt: as §2, §1

[2] = test system: MDRAB 12010 (A. baumannii CCARM 12010)
Excerpt: as §2, §1

[3] = test system: MDRAB 12220 (A. baumannii CCARM 12220)
Excerpt: as §2, §1

[4] = test system: MDREC 1229 (E. coli CCARM 1229)
Excerpt: as §2, §1

[5] = test system: MDREC 1238 (E. coli CCARM 1238)
Excerpt: as §2, §1

[6] = test system: sheep red blood cells (sRBCs); test: Hemolytic activity; type: cell-based
Protocol: The hemolytic activity of all Pro-peptides were tested against sheep red blood cells (sRBCs) as described in previous reports. Fresh sRBCs were washed three times with phosphate-buffered saline (PBS) followed by centrifugation for 5 min at 2500 rpm at 4 °C. Peptides (0.2 to 100 μM) in PBS were incubated with 4% (v/v) sRBCs for 1 h at 37 °C. The contents were then centrifuged for 5 min at 1000 × g. The absorbance of the supernatant at 405 nm was used as a measure of hemolysis, and three times independent measurements were averaged. As a control, 100% hemolysis was obtained by treating sRBCs with melittin.

RAW264.7 cells = test: Cytotoxicity, WST-8 cell proliferation assay; type: cell-based, mouse; details: 24 h, WST-8, 450 nm, mean of three experiments
Protocol: Murine RAW264.7 macrophage cells were purchased from Korean Cell Line Bank (Seoul, South Korea). The cells were cultured in Dulbecco modified Eagle medium (DMEM) (Thermo Fischer Scientific Inc., MA, USA) supplemented with 10% fetal bovine serum, 100 U/mL penicillin, and […] streptomycin at 37 °C in a humidified 5% CO2 incubator. The cytotoxicity of peptides against RAW264.7 cells was determined using WST-8 Cell Proliferation Assay Kit (Biomax Co.,Ltd, Seoul, South Korea). Briefly, cells (1 × 10^5) were seeded in 96-well plated and then treated with 3.125, 6.25, 12.5, 25, and 50 μM of respective peptides for 24 h followed by addition of 10 μL of the WST-8 reagent for another 3 h incubation at 37 °C. The color intensity was read at 450 nm using a microplate reader.

[7] = test system: Standard gram-negative bacteria; details: table row printed 'Standard gram-negative bacteria'; MH media, 2 × 10^5 CFU/mL, 16 h at 37 °C, absorbance 600 nm; average of three measurements
Excerpt: as §2, §1

chymotrypsin = test: Protease stability assay (antimicrobial activity after protease digestion); type: in vitro ADME; details: peptide–enzyme 10,000:1, PBS, 6 h at 37 °C preincubation, then E. coli and A. baumannii 2 × 10^5 CFU/mL, 16 h at 37 °C, 600 nm, repeated three times
Protocol: (§3) For stability analysis, all Pro-peptides at their MICs were incubated with trypsin and chymotrypsin at the ratio of 10,000:1 (peptide–enzyme) in PBS for 6 h at 37 °C. After incubation, 100 μL of peptide-protease mixture was added to the 100 μL bacterial suspension (E. coli and A. baumannii, 2 × 10^5 CFU/mL) and further incubated for 16 h at 37 °C. Melittin was used as standard peptide, and bacterial suspension without peptide and protease served as control. The experiment was repeated three times, and the extent of bacterial growth was measured at 600 nm using a microplate reader.

trypsin = test: as above; type: in vitro ADME; details: peptide–enzyme 10,000:1, PBS, 6 h at 37 °C preincubation, then E. coli and A. baumannii 2 × 10^5 CFU/mL, 16 h at 37 °C, 600 nm, repeated three times
Protocol: as §3

[8] = LPS neutralization, limulus amebocyte lysate (LAL) assay; type: biochemical, Escherichia coli O111:B4; details: 50 μM peptide, 20 ng/mL LPS, 30 min at 37 °C, LAL chromogenic kit, 405 nm; triplicate
Protocol: The LPS-neutralizing activity of all peptides was determined using the Pierce LAL chromogenic endotoxin quantitation kit (ThermoFisher Scientific, MA, USA). All peptides including standard (Polymixin B) at varying concentrations (3.12, 6.25, 12.5, 25, and 50 μM in endotoxin-free water) were allowed to bind with 20 ng/mL of LPS in a 96-well plate for 30 min at 37 °C. To this, an equal volume (10 μL) of LAL reagent was added and incubated for 10 min at 37 °C and then 20μL of LAL chromogenic substrate was added. After 15 min incubation at 37 °C, the reaction was stopped by 25% acetic acid and the reduction in yellow color formation due to the substrate was measured at 405 nm on an absorbance microplate reader. The experiment was conducted in triplicate, and the changes in absorbance due to peptide-LPS interaction are indicated as percent LPS neutralization.

For `CC[C@H](C)[C@H](NC(=O)CN)C(=O)NCC(=O)N[C@@H](C)C(=O)N[C@H](C(=O)N[C@@H](CC(C)C)C(=O)N[C@@H](CCCCN)C(=O)N[C@H](C(=O)N[C@@H](CC(C)C)C(=O)N[C@H](C(=O)N[C@H](C(=O)NCC(=O)N[C@@H](CC(C)C)C(=O)N1CCC[C@H]1C(=O)N[C@@H](C)C(=O)N[C@@H](CC(C)C)C(=O)N[C@H](C(=O)N[C@@H](CO)C(=O)N[C@@H](Cc1c[nH]c2ccccc12)C(=O)N[C@H](C(=O)N[C@@H](CCCCN)C(=O)N[C@@H](CCCNC(=N)N)C(=O)N[C@@H](CCCCN)C(=O)N[C@@H](CCCNC(=N)N)C(=O)N[C@@H](CCC(N)=O)C(=O)N[C@@H](CCC(N)=O)C(N)=O)[C@@H](C)CC)[C@@H](C)CC)[C@@H](C)O)[C@@H](C)O)C(C)C)C(C)C` [Melittin, reference compound], the “GM (geometric mean of MIC values of all bacterial strains)” value (all bacterial strains) was 12.0 µM.

In the case of `CC[C@@H](C)[C@@H](NC(=O)[C@@H](C)NC(=O)[C@@H](CC(C)C)NC(=O)[C@@H](Cc1c[nH]c2ccccc12)NC(=O)[C@@H](CC(C)C)NC(=O)[C@H](N)CCCNC(=N)N)C(=O)N[C@H](Cc1c[nH]c2ccccc12)C(=O)N[C@H](CCCNC(=N)N)C(=O)N[C@H](CCCNC(=N)N)C(N)=O` [Pro9-3D] (H-[dR][dL][dW][dL][dA][dI][dW][dR][dR]-NH2), the “Minimal Inhibitory Concentration (MIC100)” value ([1]; KCCM 40203, 16 h) is reported as 4 µM, the “Minimal Inhibitory Concentration (MIC100)” value (E. Coli; 16 h) is reported as 4 µM and the “Minimal Inhibitory Concentration (MIC100)” value ([2]; CCARM 12010, 16 h) is reported as 8 µM. The “Minimal Inhibitory Concentration (MIC100)” value ([3]; CCARM 12220, 16 h) was 8 µM, the “Minimal Inhibitory Concentration (MIC100)” value ([4]; CCARM 1229, 16 h) was 8 µM and the “Minimal Inhibitory Concentration (MIC100)” value ([5]; CCARM 1238, 16 h) was 4 µM. For the same compound, the “HC10 (peptide concentration inducing 10% hemolysis)” value ([6]; red cells of sheep, 1 h) was 200 µM, the “survival rate of RAW264.7 cells” value (RAW264.7 cells; 25 μM) was 68% and the “survival rate of RAW264.7 cells” value (RAW264.7 cells; 50 μM) was 51.8%.

For `CC[C@H](C)[C@H](NC(=O)[C@H](C)NC(=O)[C@H](CC(C)C)NC(=O)[C@H](Cc1c[nH]c2ccccc12)NC(=O)[C@H](CC(C)C)NC(=O)[C@@H](N)CCCNC(=N)N)C(=O)N[C@@H](Cc1c[nH]c2ccccc12)C(=O)N[C@@H](CCCNC(=N)N)C(=O)N[C@@H](CCCNC(=N)N)C(N)=O` [Pro9-3] (H-RLWLAIWRR-NH2), the “Minimal Inhibitory Concentration (MIC100)” value ([1]; KCCM 40203, 16 h) was 16 µM, the “Minimal Inhibitory Concentration (MIC100)” value (E. Coli; 16 h) was 16 µM and the “Minimal Inhibitory Concentration (MIC100)” value ([2]; CCARM 12010, 16 h) was 16 µM. The “Minimal Inhibitory Concentration (MIC100)” value ([3]; CCARM 12220, 16 h) was 16 µM, the “Minimal Inhibitory Concentration (MIC100)” value ([4]; CCARM 1229, 16 h) was 16 µM and the “Minimal Inhibitory Concentration (MIC100)” value ([5]; CCARM 1238, 16 h) was 32 µM. The “Minimal Inhibitory Concentration (MIC100)” value [7] was 16 µM, the “HC10 (peptide concentration inducing 10% hemolysis)” value ([6]; red cells of sheep, 1 h) was 200 µM and the “survival rate of RAW264.7 cells” value (RAW264.7 cells; 25 μM) was 95%. The “survival rate of RAW264.7 cells” value (RAW264.7 cells; 50 μM) was 94% and the “peptide concentration up to which bacterial growth was not inhibited in the presence of protease” value (chymotrypsin) was greater than 64 µM.

With `CC[C@H](C)[C@H](NC(=O)[C@H](C)NC(=O)[C@H](CC(C)C)NC(=O)[C@H](Cc1c[nH]c2ccccc12)NC(=O)[C@H](CC(C)C)NC(=O)[C@H](CCCNC(=N)N)NC(=O)[C@@H](N)CCCNC(=N)N)C(=O)N[C@@H](Cc1c[nH]c2ccccc12)C(=O)N[C@@H](CCCNC(=N)N)C(=O)N[C@@H](CCCNC(=N)N)C(N)=O` [Pro10-1] (H-RRLWLAIWRR-NH2) the “Minimal Inhibitory Concentration (MIC100)” value ([1]; A. baumannii, MH media, 2 × 10^5 CFU/mL, 16 h at 37 °C, absorbance 600 nm, average of three measurements) was 8 µM, the “Minimal Inhibitory Concentration (MIC100)” value (E. Coli; table row printed 'E. Coli', MH media, 2 × 10^5 CFU/mL, 16 h at 37 °C, absorbance 600 nm, average of three measurements) was 16 µM and the “Minimal Inhibitory Concentration (MIC100)” value ([2]; MDRAB 12010, MH media, 2 × 10^5 CFU/mL, 16 h at 37 °C, absorbance 600 nm, average of three measurements) was 8 µM. For the same compound, the “Minimal Inhibitory Concentration (MIC100)” value ([3]; MDRAB 12220, MH media, 2 × 10^5 CFU/mL, 16 h at 37 °C, absorbance 600 nm, average of three measurements) was 16 µM, the “Minimal Inhibitory Concentration (MIC100)” value ([4]; MDREC 1229, MH media, 2 × 10^5 CFU/mL, 16 h at 37 °C, absorbance 600 nm, average of three measurements) was 8 µM and the “Minimal Inhibitory Concentration (MIC100)” value ([5]; MDREC 1238, MH media, 2 × 10^5 CFU/mL, 16 h at 37 °C, absorbance 600 nm, average of three measurements) was 32 µM. For the same compound, the “Minimal Inhibitory Concentration (MIC100)” value [7] was 16 µM, the hemolysis ([6]; 100 μM peptide, 4% (v/v) sRBCs in PBS, 1 h at 37 °C, absorbance 405 nm, three measurements averaged) was “no hemolytic activity” and the “HC10 (peptide concentration inducing 10% hemolysis)” value ([6]; heparinized sheep red blood cells, 200 μM entered when no detectable hemolysis was observed at 100 μM) was 200 µM. For the same compound, the “survival rate of RAW264.7 cells” value (RAW264.7 cells; 25 μM) was 90%, the “survival rate of RAW264.7 cells” value (RAW264.7 cells; 50 μM) was 87% and the “peptide concentration up to which bacterial growth was not inhibited in the presence of protease” value (chymotrypsin) was greater than 64 µM. For the same compound, the “peptide concentration up to which bacterial growth was not inhibited in the presence of protease” value (trypsin) was greater than 64 µM.

For polymyxin B [reference compound], the “inhibition of the activation of LPS (LPS neutralization)” value [8] was 67.4%.
